We go through 9 compounds from patent publication US10117944B2, “Targeted therapeutics” (Madrigal Pharmaceuticals, Inc., priority 2014, dated 2018).

Where “and” joins values, the source holds several entries; their conditions need not be identical. Equal values may be shown once. Read-outs that look alike come from different tables or passages of the source.

Broadly, the IC50 is the concentration needed to halve the response being measured. Higher therefore signals weaker potency.

A short description of data set [1]: Stability of SDC-TRAPs in mouse plasma. As to conditions: 37° C. The format is in vitro ADME. As for the experimental part:
SDC-TRAPs were incubated in mouse plasma for 1 h at 37° C. and assayed for integrity at 0, 0.25, 0.5 and 1 h to assess the stability of the SDC-TRAP, e.g., as compared to the effector and targeting compounds. Compound stability was determined using […].

Data set [2] concerns HER2. In words: HER2 degradation assay with BT-474 cell line. As to conditions: BT-474 cells, overnight incubation. The format is cell-based, human.
Experimental: BT-474 cells (human breast cancer cell line ATCC HTB-20) were obtained from ATCC and seeded into 12-well tissue culture plates at 0.2×10^6/1.8 mL/well. The cells were incubated for more than 6 hours at 37° C. in DMEM+10% FBS, +1% P/S, +1.5 g/L sodium bicarbonate. […] The DMSO final concentration was 0.2%. Cells were incubated overnight at 37° C. in 5% CO2.
Media was decanted from the plate, cells were washed 1× in PBS. 400 μL trypsin (EDTA) per well was added, and the cells were incubated for 2 to 3 minutes. Cells were collected into FACS tubes containing 1 ml culture medium to neutralize the trypsin and were centrifuged for 5 minutes at 1200 rpm. Supernatant was decanted and the cells were resuspended in 5 μL FITC (anti HER2/nu)/200 μL staining buffer (1×PBS+1% FBS+0.05% Sodium Azide)/tube. Controls were 5 μL IgG isotype control and staining buffer only. Tubes were incubated for 30 minutes in the dark at room temperature. 1 mL staining buffer was added to each tube and the tubes were centrifuged for 6 minutes at 1200 rpm. The supernatant was decanted and 300 μL staining buffer was added to each tube, which was stored at 4° C. for FACS (cytometer) analysis. The cytometer readout was normalized and the potency of each compound was evaluated with IC50 calculated with XLfit™ software.
Data set [3] can be described thus: Tissue distribution of ganetespib in female CD-1 nu/nu mice bearing RERF human NSCLC xenografts. Type of data set: in vivo. As to conditions: IV 50 mg/kg; for concentration at 5 min / concentration at 24 h / concentration at 6 h: female, CD-1 nu/nu, mouse. An excerpt: To confirm the distribution of ganetespib in blood, livers, kidneys, brains, hearts, lungs and tumors after IV administration of ganetespib to female CD-1 nu/nu mice bearing RERF human NSCLC xenografts, and to examine metabolic profiles of ganetespib in plasma, red blood cells, and above tissues.
Test Articles: ganetespib
Animals: female CD-1 nu/nu mice bearing RERF human NSCLC xenografts (N=3/group)
Formulation: 10% DMSO, 18% Cremophor RH40, 3.6% dextrose solution (DRD)
Bleeding time points: 5 min, 6, 24 hr
Collected tissues: blood (plasma and red blood cells (RBC)), liver, kidneys, brain, heart, lung, tumor
Protein precipitation: 50 μL of 10 times diluted plasma or RBC+150 μL ACN (10 mM NH4OAc), vortexed and centrifuged at 10000 rpm for 8 min; 150 μL supernatant+150 μL water (10 mM NH4OAc)
Protein precipitation: 100 μL homogenized tissue (1:3 tissue: PBS buffer)+100 μL ACN (10 mM NH4OAc), vortexed and centrifuged at 10000 rpm for 8 min

`CC(C)C[C@H](NC(=O)[C@H](Cc1ccccc1)NC(=O)c1cnccn1)B1OC(C)(C)C(C)(c2ccc(C(=O)N3CCN(Cc4ccc(-n5c(O)nnc5-c5cc(C(C)C)c(O)cc5O)cc4)CC3)cc2)O1` (stereo partly drawn) [SDC-TRAP-0236, N-((2S)-1-(((1R)-1-(4-(4-(4-(4-(3-(2,4-dihydroxy-5-isopropylphenyl)-5-hydroxy-4H-1,2,4-triazol-4-yl)benzyl)piperazine-1-carbonyl)phenyl)-4,5,5-trimethyl-1,3,2-dioxaborolan-2-yl)-3-methylbutyl)amino)-1-oxo-3-phenylpropan-2-yl)pyrazine-2-carboxamide]: in data set [1], the “% Remaining (1 h)” value is 25.5%. In data set [2], this compound had an IC50 of 710 nM.

Take `CC(C)C[C@H](NC(=O)[C@H](Cc1ccccc1)NC(=O)c1cnccn1)B1OC(C)(C)C(C)(c2ccc(C(=O)N3CCC(CCn4ccc5cc(-n6c(O)nnc6-c6cc(C(C)C)c(O)cc6O)ccc54)CC3)cc2)O1` (stereo partly drawn) [SDC-TRAP-0237, N-((2S)-1-(((1R)-1-(4-(4-(4-(2-(5-(3-(2,4-dihydroxy-5-isopropylphenyl)-5-hydroxy-4H-1,2,4-triazol-4-yl)-1H-indol-1-yl)ethyl)piperidine-1-carbonyl)phenyl)-4,5,5-trimethyl-1,3,2-dioxaborolan-2-yl)-3-methylbutyl)amino)-1-oxo-3-phenylpropan-2-yl)pyrazine-2-carboxamide]: in data set [1], the “% Remaining (1 h)” value turned out to be 84.2%. In data set [2], this compound gave an IC50 of over 5000 nM.

In the case of `CC(C)C[C@H](NC(=O)[C@H](Cc1ccccc1)NC(=O)c1cnccn1)B1OC(C)(C)C(C)(c2ccc(C(=O)N3CCN(c4ccc(-n5c(O)nnc5-c5cc(C(C)C)c(O)cc5O)cc4)CC3)cc2)O1` (stereo partly drawn) [SDC-TRAP-0238, N-((2S)-1-(((1R)-1-(4-(4-(4-(4-(3-(2,4-dihydroxy-5-isopropylphenyl)-5-hydroxy-4H-1,2,4-triazol-4-yl)phenyl)piperazine-1-carbonyl)phenyl)-4,5,5-trimethyl-1,3,2-dioxaborolan-2-yl)-3-methylbutyl)amino)-1-oxo-3-phenylpropan-2-yl)pyrazine-2-carboxamide], the “% Remaining (1 h)” value in data set [1] is 24.0%. The same compound showed an IC50 in data set [2] of over 5000 nM.

As for `CC(C)C[C@H](NC(=O)[C@H](Cc1ccccc1)NC(=O)c1cnccn1)B1OC(C)(C)C(C)(c2ccc(C(=O)N3CCc4ccc(-n5c(O)nnc5-c5cc(C(C)C)c(O)cc5O)cc4C3)cc2)O1` (stereo partly drawn) [SDC-TRAP-0239, N-((2S)-1-(((1R)-1-(4-(4-(7-(3-(2,4-dihydroxy-5-isopropylphenyl)-5-hydroxy-4H-1,2,4-triazol-4-yl)-1,2,3,4-tetrahydroisoquinoline-2-carbonyl)phenyl)-4,5,5-trimethyl-1,3,2-dioxaborolan-2-yl)-3-methylbutyl)amino)-1-oxo-3-phenylpropan-2-yl)pyrazine-2-carboxamide], in data set [1], the “% Remaining (1 h)” value was determined as 35.8%. The IC50 in data set [2] was over 5000 nM.

On to `CCNC(=O)c1nnc(-c2cc(C(C)C)c(O)cc2O)n1-c1ccc2c(ccn2CCC2CCN(C(=O)c3ccc(C4(C)OB([C@H](CC(C)C)NC(=O)[C@H](Cc5ccccc5)NC(=O)c5cnccn5)OC4(C)C)cc3)CC2)c1` (stereo partly drawn) [SDC-TRAP-0240, N-((2S)-1-(((1R)-1-(4-(4-(4-(2-(5-(3-(2,4-dihydroxy-5-isopropylphenyl)-5-(ethylcarbamoyl)-4H-1,2,4-triazol-4-yl)-1H-indol-1-yl)ethyl)piperidine-1-carbonyl)phenyl)-4,5,5-trimethyl-1,3,2-dioxaborolan-2-yl)-3-methylbutyl)amino)-1-oxo-3-phenylpropan-2-yl)pyrazine-2-carboxamide], for which the “% Remaining (1 h)” value in data set [1] is on record as 84.0%. The IC50 in data set [2] is over 5000 nM.

As to `CC(C)C[C@H](NC(=O)[C@H](Cc1ccccc1)NC(=O)c1cnccn1)B1OC(C)(C)C(C)(c2ccc(C(=O)N3CCC(COc4ccc(-n5c(O)nnc5-c5cc(C(C)C)c(O)cc5O)cc4)CC3)cc2)O1` (stereo partly drawn) [SDC-TRAP-0242, N-((2S)-1-(((1R)-1-(4-(4-(4-((4-(3-(2,4-dihydroxy-5-isopropylphenyl)-5-hydroxy-4H-1,2,4-triazol-4-yl)phenoxy)methyl)piperidine-1-carbonyl)phenyl)-4,5,5-trimethyl-1,3,2-dioxaborolan-2-yl)-3-methylbutyl)amino)-1-oxo-3-phenylpropan-2-yl)pyrazine-2-carboxamide], 407 nM corresponded to half-maximal inhibition in data set [2] (IC50).

In the case of `CC(C)C[C@H](NC(=O)[C@H](Cc1ccccc1)NC(=O)c1cnccn1)B1O[C@H]2C[C@H]3C[C@H](C3(C)C)[C@@]2(CC(=O)N2CCC(CCn3ccc4cc(-n5c(O)nnc5-c5cc(C(C)C)c(O)cc5O)ccc43)CC2)O1` [SDC-TRAP-0245, N—((S)-1-(((R)-1-((3aR,4R,6R,7aS)-3a-(2-(4-(2-(5-(3-(2,4-dihydroxy-5-isopropylphenyl)-5-hydroxy-4H-1,2,4-triazol-4-yl)-1H-indol-1-yl)ethyl)piperidin-1-yl)-2-oxoethyl)-5,5-dimethylhexahydro-4,6-methanobenzo[d][1,3,2]dioxaborol-2-yl)-3-methylbutyl)amino)-1-oxo-3-phenylpropan-2-yl)pyrazine-2-carboxamide], the “% Remaining (1 h)” value in data set [1] came out at 44.2%.

Regarding `CCNC(=O)c1nnc(-c2cc(C(C)C)c(O)cc2O)n1-c1ccc(CN2CCC(C(=O)N3CCC4(CC3)OB([C@H](CC(C)C)NC(=O)[C@H](Cc3ccccc3)NC(=O)c3cnccn3)OC4(C)C)CC2)cc1` [SDC-TRAP-0252, N—((S)-1-(((R)-1-(8-(1-(4-(3-(2,4-dihydroxy-5-isopropylphenyl)-5-(ethylcarbamoyl)-4H-1,2,4-triazol-4-yl)benzyl)piperidine-4-carbonyl)-4,4-dimethyl-1,3-dioxa-8-aza-2-boraspiro[4.5]decan-2-yl)-3-methylbutyl)amino)-1-oxo-3-phenylpropan-2-yl)pyrazine-2-carboxamide], the “% Remaining (1 h)” value in data set [1] is 34%.

As for `CC(C)c1cc(-c2n[nH]c(=O)n2-c2ccc3c(ccn3C)c2)c(O)cc1O` [ganetespib], the “Mean concentration in plasma relative to that in RBC” value in data set [3] (5 min) is reported as “about 10 times”. The Concentration in tumor in data set [3] (5 min, tumor) is 2350 nM. For the same compound, the Concentration in plasma entry in data set [3] (24 hr, plasma) is reported as “<LLOQ”. Moreover, the concentration at 5 min in data set [3] (red blood cells, 5 min, RBC, read-out: Concentration in RBC) was 6000 ng/mL and 16.5 µM; in data set [3] (5 min, brain, read-out: Concentration in brain) it was 530 nM and 190 ng/g; in data set [3] (5 min, heart, read-out: Concentration in heart) it was 36.2 µM and 13200 ng/g; in data set [3] (5 min, kidneys, read-out: Concentration in kidneys), 57.8 µM and 21100 ng/g; in data set [3] (5 min, liver, read-out: Concentration in liver) it was 46.3 µM and 16900 ng/g; in data set [3] (5 min, lung, read-out: Concentration in lung) it was 9240 ng/g and 25.4 µM. Moreover, the concentration at 5 min is 160 µM and 58400 ng/mL in data set [3] (5 min, plasma, read-out: Concentration in plasma); 860 ng/g and 2.35 µM in data set [3] (5 min, tumor, read-out: Concentration in tumor). Besides, the concentration at 24 h was 3 ng/mL and 7 nM in data set [3] (red blood cells, 24 hr, RBC, read-out: Concentration in RBC); 40 ng/g and 120 nM in data set [3] (24 hr, brain, read-out: Concentration in brain); 0 ng/g and 0 nM in data set [3] (24 hr, heart, read-out: Concentration in heart); 10 ng/g and 20 nM in data set [3] (24 hr, kidneys, read-out: Concentration in kidneys); 5 ng/g and 10 nM in data set [3] (24 hr, liver, read-out: Concentration in liver); 0 ng/g and 5 nM in data set [3] (24 hr, lung, read-out: Concentration in lung). The concentration at 24 h is under 2.5 nM in data set [3] (24 hr, plasma, read-out: Plasma concentration (below the lower limit of quantitation)); 850 nM and 310 ng/g in data set [3] (24 hr, tumor, read-out: Concentration in tumor). The concentration at 6 h is 70 ng/g and 180 nM in data set [3] (brain, read-out: Concentration in brain); 50 ng/g and 130 nM in data set [3] (heart, read-out: Concentration in heart); 60 ng/g and 150 nM in data set [3] (kidneys, read-out: Concentration in kidneys); 140 ng/g and 390 nM in data set [3] (liver, read-out: Concentration in liver); 50 ng/g and 140 nM in data set [3] (lung, read-out: Concentration in lung); 120 nM and 40 ng/mL in data set [3] (plasma, read-out: Concentration in plasma). For the same compound, in data set [3] (tumor, read-out: Concentration in tumor), the concentration at 6 h was 290 ng/g and 800 nM.
